This note sets out measurements from PMC10002956, “Tumour suppressor PTEN activity is differentially inducible by myo‐inositol phosphates” (Journal of Cellular and Molecular Medicine, 2023).

The target in assay [1] is T1, PTEN (phosphatase and tensin homologue deleted on Chromosome 10) (Homo sapiens, UniProt P60484).
T1 construct: commercial recombinant PTEN; immobilised on CM5 chip for SPR
Put plainly: malachite green phosphate release from PIP3. To be noted: PIP3 200 μM, PTEN 50 μM, IHP 2.5-40 mM; Tris-HCl pH 7.5, 10 mM DTT, 37 °C. It counts as biochemical.

Assay [2] concerns the target T1, PTEN (phosphatase and tensin homologue deleted on Chromosome 10). Briefly: SPR, PTEN immobilised on CM5 chip, Biacore T200, […] Langmuir with mass transport. Format: binding. The conditions noted are these: 25 °C, HBS; PIP3 25-400 μM; acyl chains of PIP3 not told.

T1 sequence (P60484 2-403): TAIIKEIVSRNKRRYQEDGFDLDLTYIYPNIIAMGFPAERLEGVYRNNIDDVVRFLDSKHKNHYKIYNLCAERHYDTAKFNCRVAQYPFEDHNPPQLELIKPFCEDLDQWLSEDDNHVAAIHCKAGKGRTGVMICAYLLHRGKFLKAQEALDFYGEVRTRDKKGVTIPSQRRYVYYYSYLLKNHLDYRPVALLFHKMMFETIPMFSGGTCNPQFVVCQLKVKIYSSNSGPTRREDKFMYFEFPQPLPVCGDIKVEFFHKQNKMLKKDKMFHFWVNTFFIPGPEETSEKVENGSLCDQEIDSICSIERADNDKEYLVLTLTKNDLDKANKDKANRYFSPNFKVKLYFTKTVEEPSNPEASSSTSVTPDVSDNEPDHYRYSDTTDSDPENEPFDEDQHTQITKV

In the case of `O=P(O)(O)O[C@H]1[C@H](OP(=O)(O)O)[C@@H](OP(=O)(O)O)[C@H](OP(=O)(O)O)[C@@H](OP(=O)(O)O)[C@H]1OP(=O)(O)O` [IHP], in assay [1], the “malachite green phosphate release from PIP3” value is recorded as “IHP inhibits hydrolysis in a concentration‐dependent manner”. Take PIP3: the “K D” value in assay [2] is ~ 2.5 micromoles.
